Converted amounts (≈) assume the structure as drawn. Where two headings read alike, the source gives them in different places. Non-standard residues stand in square brackets, D forms with d. Residues, ends and D or L forms follow the SMILES beside them. 2Nal = N[C@@H](Cc1ccc2ccccc2c1)C(=O)O
Legend:
[1] = test system: Pseudomonas aeruginosa (PSA, ATCC 27883); conditions: ATCC 27883
[2] = test system: MRSA (ATCC BAA-1556); conditions: MRSA (ATCC BAA-1556); for MIC (peptide): peptide alone; for FIC (peptide): peptide in combination with antibiotics
[3] = test system: Klebsiella pneumoniae (KPC, ATCC BAA-1705); conditions: Klebsiella pneumoniae (ATCC BAA-1705); for MIC (peptide): peptide alone; for FIC (peptide): peptide in combination with antibiotics
[4] = test system: Pseudomonas aeruginosa (PSA, ATCC 27883); experiment: Synergy checkerboard assay (FIC index); format: cell-based; conditions: Pseudomonas aeruginosa (ATCC 27883); for MIC (peptide): peptide alone; for FIC (peptide): peptide in combination with antibiotics
[5] = test system: Escherichia coli (E. Coli, ATCC 25922); conditions: Escherichia coli (ATCC 25922); for MIC (peptide): peptide alone; for FIC (peptide): peptide in combination with antibiotics
[6] = test system: Methicillin-resistant Staphylococcus aureus MRSA (ATCC BAA-1556); conditions: ATCC BAA-1556
[7] = format: in vivo; conditions: for Average Body Weight / Average Body Weight Growth Rate: Female (M40~M42)
Description: In-vivo toxicity study of IFX301. 1. Dose formulations were prepared freshly on dosing day. Doses started from the low to high levels and staggered with 4 h up to 24 h between doses with animals. A dose was escalated or decreased if the test compound appears to be generally tolerated well or not. The cage side observation was done twice daily. The clinical observation was conducted prior to randomization and dosing daily thereafter (at least hourly for the first 4 hours after dosing) and prior to termination for mortality, morbidity check, and clinical signs. Bodyweight was monitored prior to randomization and dosing, daily thereafter, and prior to termination. Gross necropsy was done for all scheduled animals on day 8. Full gross necropsy was conducted, this includes a macroscopic examination of the external surface of the body, all orifices, cranial cavity, the external surface of the brain and cut surfaces of the spinal cord, and the cranial, thoracic, abdominal and pelvic cavities and their viscera, cervical areas, carcass, and genitalia; The animal identification and selected tissues (sex appropriate) identified in Table 38 were sampled and preserved in 10% neutral buffered formalin (NBF). For unscheduled animals (found dead and moribund sacrificed animals): gross necropsy was conducted, and tissues were preserved for possible histology to determine the cause of death. Histopathology was done for adrenal glands, brain, cecum, colon, duodenum, heart, ileum, jejunum, kidneys, liver, rectum, spleen, stomach, thymus lung, pancreas and the testis (ovaries); total 16 tissues/mouse.

[8] = test system: Methicillin-resistant Staphylococcus aureus MRSA (ATCC BAA-1556); conditions: ATCC BAA-1556; remark: listed apart in the source
[9] = test system: Escherichia coli (E. Coli, ATCC 25922); conditions: ATCC 25922
[10] = test system: human red blood cells; design: unit not given beside the values
[11] = test system: Klebsiella pneumoniae (KPC, ATCC BAA-1705); conditions: ATCC BAA-1705
[12] = test system: Escherichia coli (ATCC 25922); conditions: ATCC 25922
[13] = test system: Pseudomonas aeruginosa (ATCC 27883); conditions: ATCC 27883
[14] = test system: Klebsiella pneumoniae (ATCC BAA-1705); conditions: ATCC BAA-1705
[15] = Average, ICR mice, IP, 25 mg/kg, Male (M49~M51)
[16] = Average, ICR mice, IP, 50 mg/kg, Male (M43~M45)
[17] = Female ICR mice, MTD study, IP route, 10 mg/kg & 5 mL/kg, M40~M42
[18] = Female ICR mice, MTD study, IP route, 25 mg/kg & 5 mL/kg, M52~M54
[19] = Female ICR mice, MTD study, IP route, 50 mg/kg & 5 mL/kg, M46~M48
[20] = peptide part of FIC antibiotic/peptides, in combination with antibiotic

N=C(N)NCCC[C@@H]1NC(=O)[C@H](CCCNC(=N)N)NC(=O)[C@H](CCCNC(=N)N)NC(=O)[C@H](Cc2c[nH]c3ccccc23)NC(=O)[C@H](Cc2c[nH]c3ccccc23)NC(=O)[C@H](Cc2c[nH]c3ccccc23)NC(=O)[C@H](Cc2c[nH]c3ccccc23)NC(=O)[C@H](CCCNC(=N)N)NC(=O)[C@H](CCCNC(=N)N)NC1=O [IFX-301, [R5W4]]
Pseudomonas aeruginosa (ATCC 27883) MIC [1]: 32 µg/mL
MIC (peptide) ([2]; Table 25): MIC = 4 ug/ml
FIC (peptide) ([2]; Table 25): FIC = 1 ug/ml
MIC (peptide) ([3]; Table 25): MIC = 32 ug/ml
FIC (peptide) ([3]; Table 25): FIC = 8 ug/ml
MIC (peptide) ([4]; Table 25): MIC = 32 ug/ml
FIC (peptide) ([4]; Table 25): FIC = 8 ug/ml
MIC (peptide) ([5]; Table 25): MIC = 16 ug/ml
FIC (peptide) ([5]; Table 25): FIC = 4 ug/ml
MRSA (ATCC BAA-1556) MIC [6]: 4 µg/mL
Adrenal glands/Body Coefficient [7, 15]: 0.03%
Heart/Body Coefficient [7, 15]: 0.57%
Kidneys/Body Coefficient [7, 15]: 2.15%
Liver/Body Coefficient [7, 15]: 8.64%
Lung/Body Coefficient [7, 15]: 1.00%
Spleen/Body Coefficient [7, 15]: 0.46%
Testes/Body Coefficient [7, 15]: 0.62%
Thymus/Body Coefficient [7, 15]: 0.31%
Heart/Body Coefficient [7, 16]: 0.49%
Kidneys/Body Coefficient [7, 16]: 2.06%
Liver/Body Coefficient [7, 16]: 8.27%
Lung/Body Coefficient [7, 16]: 0.72%
Spleen/Body Coefficient [7, 16]: 0.68%
Testes/Body Coefficient [7, 16]: 0.69%
Thymus/Body Coefficient [7, 16]: 0.25%
Adrenal glands/Body Coefficient [7, 17]: 0.04%
Average Body Weight before Necropsy [7, 17]: 25 g
Brain/Body Coefficient [7, 17]: 1.77%
Heart/Body Coefficient [7, 17]: 0.51%
Kidneys/Body Coefficient [7, 17]: 1.46%
Liver/Body Coefficient [7, 17]: 6.51%
Lung/Body Coefficient [7, 17]: 0.89%
Ovaries/Body Coefficient [7, 17]: 0.08%
Spleen/Body Coefficient [7, 17]: 0.60%
Thymus/Body Coefficient [7, 17]: 0.48%
Adrenal glands/Body Coefficient [7, 18]: 0.05%
Average Body Weight before Necropsy [7, 18]: 23 g
Heart/Body Coefficient [7, 18]: 0.53%
Kidneys/Body Coefficient [7, 18]: 1.73%
Liver/Body Coefficient [7, 18]: 7.85%
Lung/Body Coefficient [7, 18]: 1.13%
Ovaries/Body Coefficient [7, 18]: 0.09%
Spleen/Body Coefficient [7, 18]: 0.64%
Thymus/Body Coefficient [7, 18]: 0.49%
Adrenal glands/Body Coefficient [7, 19]: 0.03%
Average Body Weight before Necropsy [7, 19]: 21 g
Heart/Body Coefficient [7, 19]: 0.49%
Kidneys/Body Coefficient [7, 19]: 1.84%
Liver/Body Coefficient [7, 19]: 7.82%
Lung/Body Coefficient [7, 19]: 0.75%
Ovaries/Body Coefficient [7, 19]: 0.08%
Spleen/Body Coefficient [7, 19]: 0.81%
Thymus/Body Coefficient [7, 19]: 0.35%
Average Body Weight ([7]; ICR mice, IP, 10 mg/kg, Day 1): 21 g
Average Body Weight ([7]; ICR mice, IP, 10 mg/kg, Day 2): 21 g
Average Body Weight Growth Rate ([7]; ICR mice, IP, 10 mg/kg, Day 2): 3.23%
Average Body Weight ([7]; ICR mice, IP, 10 mg/kg, Day 3): 22 g
Average Body Weight Growth Rate ([7]; ICR mice, IP, 10 mg/kg, Day 3): 4.84%
Average Body Weight ([7]; ICR mice, IP, 10 mg/kg, Day 4): 23 g
Average Body Weight Growth Rate ([7]; ICR mice, IP, 10 mg/kg, Day 4): 11.29%
Average Body Weight ([7]; ICR mice, IP, 10 mg/kg, Day 5): 24 g
Average Body Weight Growth Rate ([7]; ICR mice, IP, 10 mg/kg, Day 5): 16.13%
Average Body Weight ([7]; ICR mice, IP, 10 mg/kg, Day 6): 24 g
Average Body Weight Growth Rate ([7]; ICR mice, IP, 10 mg/kg, Day 6): 16.13%
Average Body Weight ([7]; ICR mice, IP, 10 mg/kg, Day 7): 24 g
Average Body Weight Growth Rate ([7]; ICR mice, IP, 10 mg/kg, Day 7): 17.74%
Average Body Weight ([7]; ICR mice, IP, 10 mg/kg, Day 8): 25 g
Average Body Weight Growth Rate ([7]; ICR mice, IP, 10 mg/kg, Day 8): 20.97%
clinical observation ([7]; mouse, in vivo): did not show any abnormalities
Average Body Weight before Necropsy ([7]; mouse, in vivo, ip, 10 mg/kg): 27 g
Average Body Weight before Necropsy ([7]; mouse, in vivo, ip, 25 mg/kg): 26 g
Average Body Weight before Necropsy ([7]; mouse, in vivo, ip, 50 mg/kg): 26 g

N=C(N)NCCC[C@@H]1NC(=O)[C@H](CCCNC(=N)N)NC(=O)[C@H](CCCNC(=N)N)NC(=O)[C@H](Cc2c[nH]c3ccccc23)NC(=O)[C@H](Cc2ccc3ccccc3c2)NC(=O)[C@H](Cc2ccc3ccccc3c2)NC(=O)[C@H](CCCNC(=N)N)NC1=O [IFX-031, c[Arg-Arg-Arg-Arg-NaI-NaI-Trp]] (cyclo(RRRR[2Nal][2Nal]W))
Pseudomonas aeruginosa (ATCC 27883) MIC [1]: 16 µg/mL
MIC MRSA ATCC BAA-1556 [8]: 1.5 µg/mL (≈ 1.24 µM)
Escherichia coli (ATCC 25922) MIC [9]: 16 µg/mL
HC50 [10]: 350
MRSA (ATCC BAA-1556) MIC [6]: 2 µg/mL
Klebsiella pneumoniae (ATCC BAA-1705) MIC [11]: 32 µg/mL

N=C(N)NCCC[C@@H]1NC(=O)[C@H](CCCNC(=N)N)NC(=O)[C@H](CCCNC(=N)N)NC(=O)[C@H](CCCCN)NC(=O)[C@H](Cc2c[nH]c3ccccc23)NC(=O)[C@H](Cc2c[nH]c3ccccc23)NC(=O)[C@H](Cc2c[nH]c3ccccc23)NC(=O)[C@H](Cc2c[nH]c3ccccc23)NC(=O)[C@H](CCCNC(=N)N)NC(=O)[C@H](CCCNC(=N)N)NC1=O [IFX-315, [R5W4K]] (cyclo(RRRRRWWWWK))
Pseudomonas aeruginosa (ATCC 27883) MIC [1]: 16 µg/mL
MIC (peptide) ([2]; Table 26): MIC = 8 ug/ml
FIC (peptide) ([2]; Table 26): FIC = 2 ug/ml
MIC (peptide) ([3]; Table 26): MIC = 64 ug/ml
FIC (peptide) ([3]; Table 26): FIC = 16 ug/ml
MIC (peptide) ([4]; Table 26): MIC = 16 ug/ml
FIC (peptide) ([4]; Table 26): FIC = 4 ug/ml
MIC E. coli ATCC 25922 [12]: 16 µg/mL (≈ 9.67 µM)
MIC P. aeruginosa ATCC 27883 [13]: 16 µg/mL (≈ 9.67 µM)
MIC (peptide) ([5]; Table 26): MIC = 16 ug/ml
FIC (peptide) ([5]; Table 26): FIC = 4 ug/ml
MIC MRSA ATCC BAA-1556 [8]: 4 µg/mL (≈ 2.42 µM)
Escherichia coli (ATCC 25922) MIC [9]: 16 µg/mL
MRSA (ATCC BAA-1556) MIC [6]: 4 µg/mL
Klebsiella pneumoniae (ATCC BAA-1705) MIC [11]: 32 µg/mL
MIC K. pneumoniae (ATCC BAA-1705) [14]: 32 µg/mL (≈ 19.3 µM)

N=C(N)NCCC[C@@H]1NC(=O)[C@H](CCCNC(=N)N)NC(=O)[C@H](CCCNC(=N)N)NC(=O)[C@H](CCCNC(=N)N)NC(=O)[C@H](Cc2c[nH]c3ccccc23)NC(=O)[C@H](Cc2c[nH]c3ccccc23)NC(=O)[C@H](Cc2c[nH]c3ccccc23)NC(=O)[C@H](Cc2c[nH]c3ccccc23)NC(=O)[C@H](CCCNC(=N)N)NC(=O)[C@H](CCCNC(=N)N)NC1=O [IFX-318, [R6W4]] (cyclo(RRRRRRWWWW))
FIC peptides [2, 20]: FIC = 2 μg/ml
FIC peptides [3, 20]: FIC = 16 μg/ml
FIC peptides [4, 20]: FIC = 4 ug/ml
FIC peptides [5, 20]: FIC = 8 μg/ml
Escherichia coli (ATCC 25922) MIC [9]: 32 µg/mL
Klebsiella pneumoniae (ATCC BAA-1705) MIC [11]: 64 µg/mL

N=C(N)NCCC[C@@H]1NC(=O)[C@H](CCCNC(=N)N)NC(=O)[C@H](CCCNC(=N)N)NC(=O)[C@H](CCCCN)NC(=O)[C@H](Cc2c[nH]c3ccccc23)NC(=O)[C@H](Cc2c[nH]c3ccccc23)NC(=O)[C@H](Cc2c[nH]c3ccccc23)NC(=O)[C@H](Cc2c[nH]c3ccccc23)NC(=O)[C@H](CCCNC(=N)N)NC(=O)[C@H](CCCNC(=N)N)NC1=O [[R4W5K] (IFX-315)] (cyclo(RRRRRWWWWK))
Pseudomonas aeruginosa (ATCC 27883) MIC [1]: 16 µg/mL
Escherichia coli (ATCC 25922) MIC [9]: 16 µg/mL
MRSA (ATCC BAA-1556) MIC [6]: 4 µg/mL
Klebsiella pneumoniae (ATCC BAA-1705) MIC [11]: 32 µg/mL
